Test results taken from patent publication US8580965B2, “Substituted sulfonamide compounds” (Gruenenthal GmbH, priority 2006, dated 2013).
Structures can show the parent of a compound that is named as a salt.

Experiments:
[1] = biological target: T1, B1R receptor of the rat (bradykinin 1 receptor) (Rattus norvegicus, UniProt P97583); experiment: FLIPR Ca2+ assay (Fluo-4) on CHO K1 cells stably transfected with the B1R gene of the rat; % activation and % inhibition at 10 μM; type: cell-based; settings: CHO K1 rB1R cells, Ca2+ inflow after 100 nM Des-Arg9-bradykinin; for B1R antagonism, rat [10 μM] % inhibition: test substance 10 μM; for inhibition at 10 µM: CHO-K1, test substance 10 μM, read-out: B1R antagonism, rat [10 μM] % inhibition
T1 construct: host or cells: CHO K1 cells (rB1R cells)
T1 sequence (P97583 1-337): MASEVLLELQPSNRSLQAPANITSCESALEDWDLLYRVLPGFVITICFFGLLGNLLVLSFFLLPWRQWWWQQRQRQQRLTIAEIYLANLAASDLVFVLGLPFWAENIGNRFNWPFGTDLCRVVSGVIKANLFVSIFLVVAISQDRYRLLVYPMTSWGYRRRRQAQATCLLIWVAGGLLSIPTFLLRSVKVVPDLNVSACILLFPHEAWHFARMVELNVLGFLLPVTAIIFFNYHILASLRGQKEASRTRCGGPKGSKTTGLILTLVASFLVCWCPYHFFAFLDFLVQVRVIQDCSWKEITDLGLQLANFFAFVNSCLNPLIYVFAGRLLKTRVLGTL
Description: (§1) The agonistic or antagonistic action of substances can be quantified on the bradykinin receptor 1 (B1R) of the species human and rat with ectopically expressing cell lines (CHO K1 cells) and with the aid of a Ca^2+-sensitive dye (Fluo-4) using a fluorescent imaging plate reader (FLIPR). The indication in % activation is based on the Ca^2+ signal after addition of Lys-Des-Arg^9-bradykinin (0.5 nM) or Des-Arg^9-bradykinin (100 nM). Antagonists result in a suppression of the Ca^2+ influx following administration of the agonist. The % inhibition in comparison with the maximum achievable inhibition is indicated.
(§2) Functional Investigation on the Bradykinin 1 Receptor (B1R)
(§3) The agonistic or antagonistic action of substances can be determined on the bradykinin 1 receptor (B1R) of the human and rat species with the following assay. According to this assay, the Ca^2+ inflow through the channel is quantified with the aid of a Ca^2+-sensitive dyes (Fluo-4 type, Molecular Probes Europe BV, Leiden, The Netherlands) in a fluorescent imaging plate reader (FLIPR, Molecular Devices, Sunnyvale, USA).
(§4) Chinese Hamster Ovary cells (CHO K1 cells) which are stably transfected with the human B1R gene (hB1R cells, Euroscreen s.a., Gosselies, Belgium) or the B1R gene of the rat (rB1R cells, Axxam, Milan, Italy) are used. For functional investigations, these cells are plated-out on black 96-well plates with a clear base (BD Biosciences, Heidelberg, Germany) in a density of 20,000-25,000 cells/well. Overnight, the cells are incubated at 37° C. and 5% CO2 in culture medium (hB1R cells: Nutrient Mixture Ham's F12, Gibco Invitrogen GmbH, Karlsruhe, Germany; rB1R cells: D-MEM/F12, Gibco Invitrogen, Karlsruhe, Germany) with 10 vol. % FBS (foetal bovine serum, Gibco Invitrogen GmbH, Karlsruhe, Germany). On the following day, the cells are loaded with 2.13 μM Fluo-4 (Molecular Probes Europe BV, Leiden, The Netherlands) in HBSS buffer (Hank's buffered saline solution, Gibco Invitrogen GmbH, Karlsruhe, Germany) […] (Sigma-Aldrich, Taufkirchen, Germany) and 10 mM HEPES (Sigma-Aldrich, Taufkirchen, Germany) for 60 min at 37° C. The plates are subsequently washed 2× with HBSS buffer, and HBSS buffer which additionally contains 0.1% BSA (bovine serum albumin; Sigma-Aldrich, Taufkirchen, Germany), 5.6 mM glucose and 0.05% gelatine (Merck KGaA, Darmstadt, Germany) is added. After a further incubation of 20 minutes at room temperature, the plates are inserted into the FLIPR for Ca^2+ measurement. The Ca^2+-dependent fluorescence is measured here before and after addition of substances (λex=488 nm, λem=540 nm). The quantification is effected by measurement of the highest fluorescence intensity (FC, fluorescence counts) over time.
(§5) The FLIPR protocol comprises 2 additions of substance. Test substances (10 μM) are first pipetted on to the cells and the Ca^2+ inflow is compared with the control (hB1R: Lys-Des-Arg^9-bradykinin 0.5 nM; rB1R: Des-Arg^9-bradykinin 100 nM). The value in % activation based on the Ca^2+ signal after addition of Lys-Des-Arg^9-bradykinin (0.5 nM) or Des-Arg^9-bradykinin (100 nM) is obtained therefrom. After incubation for 10 minutes, 0.5 nM Lys-Des-Arg^9-bradykinin (hB1R) or 100 nM Des-Arg^9-bradykinin (rB1R) are applied and the inflow of Ca^2+ is likewise determined. Antagonists lead to a suppression of the Ca^2+ inflow. % inhibition compared with the maximum inhibition which can be achieved is calculated. The compounds show a good activity on the human and on the rat receptor. The following data were determined by way of example: […]

[2] = biological target: T2, human B1R receptor (bradykinin 1 receptor) (Homo sapiens, UniProt P46663); experiment: FLIPR Ca2+ assay (Fluo-4) on CHO K1 cells stably transfected with the human B1R gene; % activation and % inhibition at 10 μM; type: cell-based; settings: CHO K1 hB1R cells, Ca2+ inflow after 0.5 nM Lys-Des-Arg9-bradykinin; for B1R antagonism, human [10 μM] % inhibition: test substance 10 μM; for inhibition at 10 µM: CHO-K1, test substance 10 μM, read-out: B1R antagonism, human [10 μM] % inhibition
T2 construct: host or cells: CHO K1 cells (hB1R cells)
T2 sequence (P46663 1-353): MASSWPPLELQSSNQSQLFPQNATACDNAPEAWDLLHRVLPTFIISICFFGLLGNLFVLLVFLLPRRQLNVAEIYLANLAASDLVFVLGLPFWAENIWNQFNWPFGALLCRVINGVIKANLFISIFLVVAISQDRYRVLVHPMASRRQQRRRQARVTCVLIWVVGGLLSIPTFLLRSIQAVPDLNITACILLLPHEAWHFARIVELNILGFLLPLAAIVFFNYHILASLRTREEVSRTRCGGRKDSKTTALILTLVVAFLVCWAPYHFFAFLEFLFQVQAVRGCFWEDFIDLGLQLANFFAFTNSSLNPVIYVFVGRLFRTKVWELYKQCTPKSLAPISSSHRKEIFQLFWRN
Description: as §1, §2, §3, §4, §5

inhibition at 10 µM [1] | inhibition at 10 µM [2] | Molecule | also measured
– | – | 2-((2-(3,4-dichlorophenylsulfonyl)-1,2,3,4-tetrahydroisoquinolin-3-yl)methoxy)-1-(4-hydroxy-4-phenylpiperidin-1-yl)ethanone [Example 76] | B1R antagonism, rat [10 μM] % inhibition [1]: 43.59%; B1R antagonism, human [10 μM] % inhibition [2]: 9.96%
102% | 104% | CCN(CCOCC(=O)N1CCC(O)(Cc2ccccc2)CC1)S(=O)(=O)c1c(C)cc(OC)c(C)c1C [Example 1, N-{2-[2-(4-benzyl-4-hydroxy-piperidin-1-yl)-2-oxo-ethoxy]-ethyl}-N-ethyl-4-methoxy-2,3,6-trimethyl-phenylsulfonamide] | –
103% | 104% | CN(CCOCC(=O)N1CCC(O)(c2cccnc2)CC1)S(=O)(=O)c1c(Cl)cc(Cl)cc1Cl [Example 2, 2,4,6-trichloro-N-{2-[2-(4′-hydroxy-3′,4′,5′,6′-tetrahydro-2′H-[3,4′]bipyridinyl-1′-yl)-2-oxo-ethoxy]-ethyl}-N-methyl-phenylsulfonamide] | –
– | – | COc1cc(C)c(S(=O)(=O)N(C)CCOCC(=O)N2CCC(O)(c3cccnc3)CC2)c(C)c1 [Example 3, N-(2-(2-(4-hydroxy-4-(pyridin-3-yl)piperidin-1-yl)-2-oxoethoxy)ethyl)-4-methoxy-N,2,6-trimethylphenylsulfonamide hydrochloride] | B1R antagonism, rat [10 μM] % inhibition ([1]; hydrochloride): 103.06%; B1R antagonism, human [10 μM] % inhibition ([2]; hydrochloride): 102.19%
– | – | COc1cc(C)c(S(=O)(=O)N(C)CCOCC(=O)N2CCC(O)(c3ccccn3)CC2)c(C)c1 [Example 4, N-{2-[2-(4′-hydroxy-3′,4′,5′,6-tetrahydro-2′H-[2,4′]bipyridinyl-1′-yl)-2-oxo-ethoxy]-ethyl}-4-methoxy-2,6,N-trimethyl-phenylsulfonamide] | B1R antagonism, rat [10 μM] % inhibition [1]: 105.56%; B1R antagonism, human [10 μM] % inhibition [2]: 101.69%
– | – | CN(CCOCC(=O)N1CCC(O)(c2cccnc2)CC1)S(=O)(=O)c1c(Cl)cc(Cl)cc1Cl [Example 5, 2,4,6-trichloro-N-(2-(2-(4-hydroxy-4-(pyridin-3-yl)piperidin-1-yl)-2-oxoethoxy)ethyl)-N-methylphenylsulfonamide hydrochloride] | B1R antagonism, rat [10 μM] % inhibition ([1]; hydrochloride): 95.11%; B1R antagonism, human [10 μM] % inhibition ([2]; hydrochloride): 101.04%
93.9% | 100% | CN(CCOCC(=O)N1CCC(O)(c2ccccn2)CC1)S(=O)(=O)c1c(Cl)cc(Cl)cc1Cl [Example 6, 2,4,6-trichloro-N-{2-[2-(4′-hydroxy-3′,4′,5′,6′-tetrahydro-2′H-[2,4′]bipyridinyl-1′-yl)-2-oxo-ethoxy]-ethyl}-N-methyl-phenylsulfonamide] | –
35.2% | 99.8% | COc1cc(C)c(S(=O)(=O)N2CCC(OCC(=O)N3CCC(O)(Cc4ccccc4)CC3)C2)c(C)c1C (stereo not shown) [Example 7, 1-(4-benzyl-4-hydroxy-piperidin-1-yl)-2-[1-(4-methoxy-2,3,6-trimethyl-phenylsulfonyl)-pyrrolidin-3-yloxy]-ethanone] | –
33.3% | 97.4% | COc1cc(C)c(S(=O)(=O)N2CCC(OCC(=O)N3CCC(O)(Cc4ccccc4)CC3)CC2)c(C)c1C [Example 8, 1-(4-benzyl-4-hydroxy-piperidin-1-yl)-2-[1-(4-methoxy-2,3,6-trimethyl-phenylsulfonyl)-piperidin-4-yloxy]-ethanone] | –
91.1% | 95.7% | CN(CCOCC(=O)N1CCC(O)(Cc2ccccc2)CC1)S(=O)(=O)c1c(Cl)cc(Cl)cc1Cl [Example 9, N-{2-[2-(4-benzyl-4-hydroxy-piperidin-1-yl)-2-oxo-ethoxy]-ethyl}-2,4,6-trichloro-N-methyl-phenylsulfonamide] | –
73.6% | 90.3% | CN(CCOCC(=O)N1CCC(O)(c2ccccn2)CC1)S(=O)(=O)c1c(Cl)cccc1Cl [Example 10, 2,6-dichloro-N-{2-[2-(4′-hydroxy-3′,4′,5′,6′-tetrahydro-2′H-[2,4′]bipyridinyl-1′-yl)-2-oxo-ethoxy]-ethyl}-N-methyl-phenylsulfonamide] | –
1.79% | 28% | O=C(COC1CCN(S(=O)(=O)c2ccc(Cl)cc2Cl)C1)N1CCC(O)(c2ccccn2)CC1 (stereo not shown) [Example 17, 2-[1-(2,4-dichloro-phenylsulfonyl)-pyrrolidin-3-yloxy]-1-(4′-hydroxy-3′,4′,5′,6′-tetrahydro-2′H-[2,4′]bipyridinyl-1′-yl)-ethanone] | –
77.3% | – | O=C(COCC1CCc2ccccc2N1S(=O)(=O)c1ccc(Cl)c(Cl)c1)N1CCC(O)(c2cccc(F)c2)CC1 (stereo not shown) [Example 145, 2-((1-(3,4-dichlorophenylsulfonyl)-1,2,3,4-tetrahydroquinolin-2-yl)methoxy)-1-(4-(3-fluorophenyl)-4-hydroxypiperidin-1-yl)ethanone] | –
105% | – | Cc1cc(S(=O)(=O)N2CCCCC2COCC(=O)N2CCC(O)(c3ccc(Cl)c(C(F)(F)F)c3)CC2)c(C)cc1Cl (stereo not shown) [Example 160, 2-((1-(4-chloro-2,5-dimethylphenylsulfonyl)piperidin-2-yl)methoxy)-1-(4-(4-chloro-3-(trifluoromethyl)phenyl)-4-hydroxypiperidin-1-yl)ethanone] | –
99.2% | – | O=C(COCC1CCCCN1S(=O)(=O)c1cc(Cl)sc1Cl)N1CCC(O)(c2ccc(Cl)c(C(F)(F)F)c2)CC1 (stereo not shown) [Example 247, 1-(4-(4-chloro-3-(trifluoromethyl)phenyl)-4-hydroxypiperidin-1-yl)-2-((1-(2,5-dichlorothiophen-3-ylsulfonyl)piperidin-2-yl)methoxy)ethanone] | –
79.9% | – | COc1cc(C)c(S(=O)(=O)N2CCCC(COCC(=O)N3CCC(O)(c4ccc(Cl)c(C(F)(F)F)c4)CC3)C2)c(C)c1 (stereo not shown) [Example 253, 1-(4-(4-chloro-3-(trifluoromethyl)phenyl)-4-hydroxypiperidin-1-yl)-2-((1-(4-methoxy-2,6-dimethylphenylsulfonyl)piperidin-3-yl)methoxy)ethanone] | –
